Assays:
COX-2 = molecular target: T1, COX-2 (Ovis aries, UniProt P79208); assay: Inhibition of PGE2 synthesis by inhibiting COX-2 activity (in vitro, TLC/autoradiography); format: biochemical, sheep; conditions: for IC50: 3 Unit COX-2 from sheep placenta, [1-14C] arachidonic acid, 37° C. for 20 min
T1 construct: 3 Unit of COX-2 (Layman chemical) that is separated from sheep placenta and purified; purchased Layman chemical (sic); host or cells: sheep placenta (tissue-derived)
T1 sequence (P79208 17-603): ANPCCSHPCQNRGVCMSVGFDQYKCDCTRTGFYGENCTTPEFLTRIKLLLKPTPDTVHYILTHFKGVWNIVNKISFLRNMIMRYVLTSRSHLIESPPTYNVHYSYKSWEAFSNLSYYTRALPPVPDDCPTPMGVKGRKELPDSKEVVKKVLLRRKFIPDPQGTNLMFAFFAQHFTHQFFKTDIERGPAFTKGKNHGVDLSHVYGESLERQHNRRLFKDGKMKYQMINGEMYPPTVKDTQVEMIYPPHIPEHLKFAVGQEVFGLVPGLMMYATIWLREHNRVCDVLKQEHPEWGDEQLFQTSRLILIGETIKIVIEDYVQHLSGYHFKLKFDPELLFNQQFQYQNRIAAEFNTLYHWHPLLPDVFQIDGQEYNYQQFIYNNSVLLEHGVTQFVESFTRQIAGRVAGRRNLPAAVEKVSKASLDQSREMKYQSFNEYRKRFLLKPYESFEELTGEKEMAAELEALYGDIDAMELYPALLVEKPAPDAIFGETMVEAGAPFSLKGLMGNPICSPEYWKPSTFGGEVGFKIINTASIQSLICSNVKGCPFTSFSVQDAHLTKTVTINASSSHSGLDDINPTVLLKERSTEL
Method: The inhibition effect of the novel derivatives against PGE2 synthesis was tested in vitro. […] The novel derivatives were synthesized from (−)-pimara-9(11), 15-diene-4-carboxylic acid, which is a diterpene compound isolated from root-bark of Acanthopanax Koreanum.
The mixture was stranded on ice for 5 min. To the mixture, the sample for assay of COX-2 activity was added, and then incubated on ice for 10 min. After preincubation, 0.02 μCi of [1-^14C] arachidonic acid, as an substrate, was added, and reacted at 37° C. for 20 min. For the termination of the reaction, 10 μl of 2 M HCl was added. Prostaglandin produced was extracted with ethylether twice. Two ethylether layers were integrated, and the solvent was evaporated at a 37° C. water-bath. […] PGE2 part of TLC plate developed was observed using autoradiography (PACKARD). The amount of PGE2 decreased by the sample was compared with reference, and then COX-2 inhibition activity of the sample was determined.

Raw 264.7 = assay: Cytotoxicity, MTT assay; format: cell-based; conditions: Raw 264.7, MTT assay at 48 hours after sample treatment
Method: (§1) To investigate the utility of diterpene derivatives synthesized, cytotoxicities of some derivatives were tested.
(§2) The cytotoxicity was tested using Raw 264.7. The cytotoxicity and non-cytotoxicity were judged by performing MTT assay at 48 hours after sample treatment.

[1] = test system: mono-arthritis model, tibeo-calcanean joint; assay: Anti-inflammatory activity against acute inflammation, adjuvant mono-arthritis model (edema index); format: in vivo; conditions: rat, 5 mg/kg intraperitoneal; for edema index size: 1 hour after inducing inflammation; for effect on edema index compared with koprofen or indometacin: after 4 hours
Method: For some of the natural single material and synthetic derivatives thereof, of which the inhibition effect against PGE2 synthesis was tested in Experimental example 1, the anti-inflammatory activity against arthritis was tested using a mono-arthritis model as follows:
Derivatives synthesized were dissolved in the mixed solvent of ethanol: Tween 80: saline (1:1:8), and then administered by intrapertioneal injection. Referring to the result of the in vitro test, 5 mg/kg was used as a dose for primary screening test. Adjuvant that was dissolved in mineral oil and then sterilized, was administered into tibeo-calcanean joint of right crus posterius of rat to induce arthritis. The injection volume is controlled to be contained M. butyricum 100 μg/50 μl.
Edema degree was determined primarily, and the degree was used as an index of inflammation. The degree was determined by the estimation method for section area of tibeo-calcanean joint part. Width and length measurements of the joint part were taken according to time schedule upon inducing inflammation, and the width multiplied by the length. The multiplied value was then used as a section area index (SAI). On the basis of the section area index, edema index was calculated as follows: […]
(SAI of inflammatory joint−SAI of normal joint)
Each index was determined at 1, 4 and 24 hours after adjuvant injection. The index value determined at the same part before adjuvant injection was used as one of normal joint.
Unpaired t-test or ANOVA using Fisher PLSD verified the statistical significance.

Cytotoxicity, MTT assay = format: cell-based; conditions: mouse, Raw 264.7 cells; Raw 264.7, MTT assay at 48 hours after sample treatment
Method: as §1, §2

IC50 (COX-2) [µM]	Molecule	also measured
26.8	C=C[C@@]1(C)CC=C2C(CCC3[C@@]2(C)CCC[C@@]3(C)/C=C/C=C/C(=O)O)C1 (stereo partly drawn) [Example 29, 4-Carboxybutadienyl-(−)-pimara-9(11),15-diene]	
	16-Hydroxy-(−)-pimara-4-carboxylic acid [Example 16]	IC50 (Raw 264.7): 137 µM; inhibition effect against PGE2 synthesis (in words) (COX-2): excellent inhibition effect
> 2000	C=C[C@@]1(C)CC=C2C(CCC3[C@](C)(C(N)=O)CCC[C@@]23C)C1 (stereo partly drawn) [Example 11, 4-Carbamoyl-(−)-pimara-9(11), 15-diene]	
41.9	C=C[C@@]1(C)CC=C2C(CCC3[C@](C)(C(=O)NN)CCC[C@@]23C)C1 (stereo partly drawn) [Example 13, 4-Carbazoyl-(−)-pimara-9(11), 15-diene]	
	C=CC1(C)CC=C2C(CCC3C(C)(C=CC(=O)O)CCCC23C)C1 (stereo not drawn) [Example 7, 4-Carboxyvinyl-(−)-pimara-9(11),15-diene]	inhibition effect against PGE2 synthesis (in words) (COX-2): excellent inhibition effect
> 2000	CON=CCC1(C)CC=C2C(CCC3C(C)(C(=O)O)CCCC23C)C1 (stereo not drawn) [Example 55, 16-Methoxyimino-(−)-Pimara-9(11)-En-4-Carboxylic Acid]	
> 2000	16-Methoxyethoxymethoxy-(−)-Pimara-9(11)-En-4-Carboxylic Acid [Example 52]	
105	C=C[C@@]1(C)CC=C2[C@@H](CC[C@@H]3[C@](C)(CCC(=O)O)CCC[C@@]23C)C1 [Example 9, 4-Carboxyethyl-(−)-pimara-9(11),15-diene]	IC50 at 48 h (Cytotoxicity, MTT assay): 114 µM; inhibition effect against PGE2 synthesis (in words) (COX-2): excellent inhibition effect; edema index size [1]: not more then half; effect on edema index compared with koprofen or indometacin [1]: even superior effect
63.8	C=CC1(C)CC=C2C(CCC3C(C)(CCC=CC(=O)O)CCCC23C)C1 (stereo not drawn) [Example 33, 4-Carboxyhomoallyl-(−)-pimara-9(11),15-diene]	
1420	CC(=O)OCCC1(C)CC=C2C(CCC3C(C)(C(=O)O)CCCC23C)C1 (stereo not drawn) [Example 48, 16-Acetyloxy-(−)-Pimara-9(11)-En-4-Carboxylic Acid]	
> 2000	C[C@]1(CCO)CC=C2C(CCC3[C@](C)(C(=O)O)CCC[C@@]23C)C1 (stereo partly drawn) [Example 15, 16-Hydroxy-(−)-pimara-9(11)-en-4-carboxylic acid]	IC50 at 48 h (Cytotoxicity, MTT assay): 139 µM
790	C=C[C@@]1(C)CC=C2C(CCC3[C@](C)(C(=O)O)CCC[C@@]23C)C1 (single isomer, unassigned; (-)) [Natural Component, (−)-pimara-9(11),15-diene-4-carboxylic acid, reference compound]	
> 2000	COCOCC[C@@]1(C)CC=C2[C@@H](CC[C@@H]3[C@](C)(C(=O)O)CCC[C@@]23C)C1 [Example 50, 16-Methoxymethoxy-(−)-Pimara-9(11)-En-4-Carboxylic Acid]	
> 2000	13-Isoxazolinyl-(−)-pimara-9(11)-en-4-carboxylic acid [Example 21]	IC50 (Raw 264.7): 250 µM
69.7	C=C[C@@]1(C)CC=C2C(CCC3[C@@]2(C)CCC[C@@]3(C)/C=C/C(=O)O)C1 (stereo partly drawn) [Example 7, 4-Carboxyvinyl-(−)-pimara-9(11),15-diene]	IC50 at 48 h (Cytotoxicity, MTT assay): 139 µM
> 2000	COCC[C@@]1(C)CC=C2[C@@H](CC[C@@H]3[C@](C)(C(=O)O)CCC[C@@]23C)C1 [Example 46, 16-Methoxy-(−)-Pimara-9(11)-En-4-Carboxylic Acid]	
> 2000	C=CC1(C)CC=C2C(CCC3C(C)(CO)CCCC23C)C1 (stereo not drawn) [Example 1, 4-Hydroxymethyl-(−)-pimara-9(11),15-diene]	

Molecule	IC50 (COX-2) [µM]	also measured
C=CC1(C)CC=C2C(CCC3C(C)(C=CC=CC(=O)NS(=O)(=O)c4ccc(I)cc4)CCCC23C)C1 (stereo not drawn) [Example 43, 4-(N-Pipsyl)Carbamoylbutadienyl-(−)-Pimara-9(11),15-Diene]	25.6	
C=CC1(C)CC=C2C(CCC3C(C)(CCC(=O)NS(C)(=O)=O)CCCC23C)C1 (stereo not drawn) [Example 41, 4-(N-methanesulfonyl)carbamoylethyl-(−)-pimara-9(11),15-diene]	180	
C=CC1(C)CC=C2C(CCC3C(C)(C(=O)NO)CCCC23C)C1 (stereo not drawn) [Example 14, 4-(N-hydroxy)carbaomyl-(−)-pimara-9(11), 15-diene]	819	
C=CC1(C)CC=C2C(CCC3C(C)(CC(=O)O)CCCC23C)C1 (stereo not drawn) [Example 5, 4-Carboxymethyl-(−)-pimara-9(11),15-diene]	82.3	IC50 (Raw 264.7): 140 µM; inhibition effect against PGE2 synthesis (in words) (COX-2): excellent inhibition effect; edema index size [1]: not more then half; effect on edema index compared with koprofen or indometacin [1]: even superior effect
C=CC1(C)CC=C2C(CCC3C(C)(C(=O)NC)CCCC23C)C1 (stereo not drawn) [Example 12, 4-(N-methyl)carbamoyl-(−)-pimara-9(11), 15-diene]	> 2000	
C=CC1(C)CC=C2C(CCC3C(C)(CCC(=O)NS(=O)(=O)c4ccc(I)cc4)CCCC23C)C1 (stereo not drawn) [Example 40, 4-(N-pipsyl)carbamoylethyl-(−)-pimara-9(11),15-diene]	60.7	
C=CC1(C)CC=C2C(CCC3C(C)(CC(=O)NS(=O)(=O)c4ccc(I)cc4)CCCC23C)C1 (stereo not drawn) [Example 38, 4-(N-pipsyl)carbamoylmethyl-(−)-pimara-9(11),15-diene]	72.2	
CC1(CCO)CC(O)C2C(CCC3C(C)(C(=O)O)CCCC23C)C1 (stereo not drawn) [Example 19, 11,16-Dihydroxy-(−)-pimara-4-carboxylic acid]	> 2000	IC50 (Raw 264.7): 152 µM
